Results taken from US20240182446A1, “TYK2 INHIBITOR COMPOUND CONTAINING BICYCLIC RING” (CHIA TAI TIANQING PHARMACEUTICAL GROUP CO., LTD., priority 2021, published 2024).
Where two headings read alike, the source gives them in different places. Marks after values point to notes of the source that are not given here.

Columns and labels:
[1] = system: STAT3 phosphorylation in Jurkat cells; experiment: Detection of STAT3 phosphorylation using Jurkat cells stimulated with IFN-α; type: cell-based; conditions: Homo sapiens, IFN-α 25 ng/mL, 30 min, compound pre-incubation 1.5 h
Procedure: 20 μL of Jurkat cells growing at log phase were taken and counted, and the required number of cells (mL) were taken and centrifuged at 1300 rpm for 3 min. Phenol red-free 1640 base medium (Hyclone) was added to adjust the cell density to about 1.7*10E7 cells/mL. The cells were seeded according to the above cell density in a 384-well plate (small-volume white plate) at 8 μL per well. The compound was added with a nanoliter pipettor, and the plate was incubated for 1.5 h. IFN-α (Beijing Sino Biological) was diluted to 75 ng/mL (with a final concentration of 25 ng/mL) with phenol red-free 1640 base medium. Subsequently, 4 μL of IFN-α (3×) was added to each well according to the plate distribution. The blank group was seeded with cells, without compound and IFN-α. The control group was seeded with cells, without compound but with IFN-α. The plate was incubated at 37° C. for 30 min. 4 μL of lysis buffer (4×) containing blocking buffer was added immediately, and the cells were lysed by shaking at room temperature for 40 min. […] pre-mixed antibody (vol/vol) in assay buffer was added and the plate was covered. The mixture was mixed well by centrifugation and incubated overnight at room temperature. Signal values at 665 nm/620 nm were detected using a PE Envision multi-functional microplate reader, and IC50 was calculated by tour-parameter fitting.

[2] = In vitro stability in liver microsomes (human); type: in vitro ADME; conditions: compound 1 μM
Procedure: (§1) 300 μL of the final incubation system contained 30 μL of liver microsomes (protein concentration: 5 mg/mL). 30 μL of NADPH+MgCl2, 3 μL of the test compound (in acetonitrile), and 237 μL of PBS buffer (pH 7.4), wherein the proportion of the organic solvent (acetonitrile) was 1% (volume ratio). Samples were prepared in duplicate of 0.30 mL for each specie. Tubes each containing 270 μL of a mixed solution of substrate and enzyme and NADPH were pre-incubated at 37° C. for 5 min. 30 μL of NADPH+MgCl2 was added and the mixture was mixed. 50 μL of the mixture was taken at 0 min, 10 min, 30 min, and 60 min, and 300 μL of glacial acetonitrile containing an internal standard was added to terminate the reaction.
(§2) 300 μL of glacial acetonitrile containing an internal standard (20 ng/mL) was added to 50 μL of the incubated sample for precipitation. The mixture was vortexed for 10 min and centrifuged (13,000 rpm, 20° C.) for 10 min. 70 μL of supernatant was taken and diluted with 70 μL of ultrapure water. After being mixed well, 0.5 μL of the resulting sample was subjected to LC/MS/MS analysis.

[3] = In vivo pharmacokinetics in mice; conditions: ICR mice, plasma; for AUC(0-t): read-out: AUC(0-10 h); for MRT last: read-out: MRT(0-t)
Procedure: ICR mice (Shanghai Institute of Planned Parenthood Research) of 6-8 weeks old, weighing 20-24 g, were randomized into groups of 9 after 3-5 days of acclimatization, and the test compounds at a dose of 15 mg/kg or 30 mg/kg were administered intragastrically to the mice.
The animals to be tested (ICR mice) were fasted for 12 h before administration and food was provided 4 h after administration, and water was freely drunk before and after the experiment and during the experiment.
After intragastrric administration, about 0.1 mL of blood was collected from the orbit at 0.25 (15 min), 0.5 (30 min), 1, 2, 4, 6, 8, and 10 h. Each mouse was subjected to blood collection at 3-4 time points, with three mice per time point. The blood samples were mixed with EDTA-K2 anticoagulant, transferred to a centrifuge within 30 min, and then centrifuged at 4000 rpm for 10 min. at 4° C. to separate the plasma. All the plasma samples were collected and immediately stored at −20° C. for testing.
400 μL of acetonitrile solution containing an internal standard (20 ng/mL) was added to 20 μL of the collected plasma sample to be tested. The mixture was shaken and mixed well for 10 min, and centrifuged at 13,000 rpm for 10 min 50 μL of supernatant was taken and diluted with 100 μL of ultrapure water. After being mixed well, 0.5 μL of the resulting sample was subjected to LC/MS/MS, and a chromatogram was recorded.
Oral exposure of the compounds disclosed herein was evaluated by in vivo pharmacokinetic experiments in mice.

[4] = system: mouse colitis model induced by anti-mouse CD40 antibody; experiment: Pharmacodynamics in mouse colitis model induced by anti-CD40 mAb antibody; type: in vivo, CB17-SCID mice; conditions: Day 7, vs model control
Procedure: SPF-grade male CB17-SCID mice (6-8 weeks old) were divided into groups on the first day of the experiment. On the first day of the experiment, the mice in the blank group were intraperitoneally injected with PBS, while the mice in the model group were intraperitoneally injected with anti-mouse CD40 antibody (100 μg, diluted with PBS as a modeling agent solution), so as to establish a mouse colitis model. The injection volume for all groups of mice was 0.1 mL.
The day of grouping was determined as Day 1, and the intragastric administration was started on the grouping day, with a volume of 2 mL/kg administered twice daily for 6 consecutive days. The vehicle for intragastric administration was: DMSO:PEG400=5:95 (volume ratio).
Animal body weights were monitored daily during the experiment. On Day 7, the end point of the experiment, all mice were euthanized and tissue samples were collected. Mice were euthanized by cervical dislocation, abdomen of the mice were cut open, and mouse spleens were collected, weighed, and photographed. The colorectum was separated from the small intestine from the end of the cecum to the anus, and the whole colorectum was removed, photographed, and then dissected longitudinally along its longitudinal axis. The intestinal contents were cleansed with a pre-cooled saline solution. The rinsed colorectum was laid flat in a large flat dish with the mucosal side thereof facing upward. Residual saline solution was removed from the […] with filter paper, and colonic tissues were taken for weighing.
The inhibition rate (%) was calculated according to the following formula: inhibition rate (%)=(M−T)/(M−C)*100% (T: treatment group; C: blank control group; M: model control group).

[5] = In vitro stability in liver microsomes (mouse); type: in vitro ADME; conditions: compound 1 μM
Procedure: as §1, §2

[6] = In vitro stability in liver microsomes (monkey); type: in vitro ADME; conditions: compound 1 μM
Procedure: as §1, §2

Compound	IC50 [1]	Human Residuals at 60 min (%) [2]	Mouse Residuals at 60 min (%) [5]	other results
[2H]C([2H])([2H])NC(=O)c1nnc(NC(=O)C2CC2)cc1Nc1cccc(-c2ncc(-c3ccc(F)nc3F)cn2)c1OC [Compound 12-j]	4.5 nM			
[2H]C([2H])([2H])NC(=O)c1nnc(NC(=O)C2CC2)cc1Nc1cccc(-c2ncc(N3CC(C)(C)CC3=O)cn2)c1OC [Compound 47-j]	2.4 nM			
[2H]C([2H])([2H])NC(=O)c1nnc(NC(=O)C2CC2)cc1Nc1cccc(-c2ncc(-c3cccnc3C#N)cn2)c1OC [Compound 26-h]	5.3 nM			
[2H]C([2H])([2H])NC(=O)c1nnc(NC(=O)C2CC2)cc1Nc1cccc(-c2ncc(-c3ccnn3C)cn2)c1OC [Compound 34-h]	5.7 nM	99.75%	92.69%	AUC(0-inf) ([3]; mouse, po, IG 15 mg/kg): 66700 ng·h/mL; Tmax ([3]; mouse, po, IG 15 mg/kg): 4 h; half-life ([3]; mouse, po, IG 15 mg/kg): 4.19 h; AUC(0-t) ([3]; mouse, po, IG 15 mg/kg): 65300 ng·h/mL; Cmax ([3]; mouse, po, IG 15 mg/kg, read-out: Cmax): 10200 ng/mL; MRT last ([3]; mouse, po, IG 15 mg/kg): 4.44 h; Spleen coefficient Inhibition rate (%) ([4]; 5 mg/kg i.g. bid for 6 days): 83%***; Spleen weight Inhibition rate (%) ([4]; 5 mg/kg i.g. bid for 6 days): 82%***; Weight of intestinal tissue per unit length Inhibition rate (%) ([4]; 5 mg/kg i.g. bid for 6 days): 70%***
[2H]C([2H])([2H])NC(=O)c1nnc(NC(=O)C2CC2)cc1Nc1cccc(-c2ncc(N3CC(O)C3)cn2)c1OC [Compound 51-j]	7.1 nM		96.42%	
[2H]C([2H])([2H])NC(=O)c1cnc(NC(=O)C2CC2)cc1Nc1cccc(-c2ncc(N3CCCC3)cn2)c1OC [Compound 60-j]	8.5 nM			
[2H]C([2H])([2H])NC(=O)c1nnc(NC(=O)C2CC2)cc1Nc1cccc(-c2ncc(-c3cccnc3)cn2)c1OC [Compound 1-j]	4.5 nM			
[2H]C([2H])([2H])NC(=O)c1nnc(NC(=O)C2CC2)cc1Nc1cccc(-c2ncc(N3CCCC3=O)cn2)c1OC [Compound 18-h]	5.3 nM	106.77%	94.80%	
[2H]C([2H])([2H])NC(=O)c1nnc(NC(=O)C2CC2)cc1Nc1cccc(-c2ncc(-c3cccnc3C)cn2)c1OC [Compound 52-j]	2.7 nM			Spleen coefficient Inhibition rate (%) ([4]; 15 mg/kg i.g. bid for 6 days): 101%***; Spleen weight Inhibition rate (%) ([4]; 15 mg/kg i.g. bid for 6 days): 102%***; Weight of intestinal tissue per unit length Inhibition rate (%) ([4]; 15 mg/kg i.g. bid for 6 days): 101%***
[2H]C([2H])([2H])NC(=O)c1nnc(NC(=O)C2CC2)cc1Nc1cccc(-c2ncc(N3CCC(C)(C)C3=O)cn2)c1OC [Compound 49-j]	5.2 nM			
[2H]C([2H])([2H])NC(=O)c1cnc(NC(=O)C2CC2)cc1Nc1cccc(-c2ncc(-c3cccnc3F)cn2)c1OC [Compound 57-j]	4.4 nM			
[2H]C([2H])([2H])NC(=O)c1nnc(NC(=O)C2CC2)cc1Nc1cccc(-c2ncc(-c3cccnc3F)cn2)c1OC [Compound 5-j]	2.9 nM	107.15%	99.08%	AUC(0-inf) ([3]; mouse, po, IG 30 mg/kg): 62600 ng·h/mL; Tmax ([3]; mouse, po, IG 30 mg/kg): 0.5 h; half-life ([3]; mouse, po, IG 30 mg/kg): 4.48 h; AUC(0-t) ([3]; mouse, po, IG 30 mg/kg): 60800 ng·h/mL; Cmax ([3]; mouse, po, IG 30 mg/kg, read-out: Cmax): 8100 ng/mL; MRT last ([3]; mouse, po, IG 30 mg/kg): 6.26 h; Monkey Residuals at 60 min (%) [6]: 99.31%
[2H]C([2H])([2H])NC(=O)c1nnc(NC(=O)C2CC2)cc1Nc1cccc(-c2ncc(-c3cncnc3C)cn2)c1OC [Compound 54-j]	3.4 nM		92.35%	
[2H]C([2H])([2H])NC(=O)c1nnc(NC(=O)C2CC2)cc1Nc1cccc(-c2ncc(N3CC[C@@H](O)C3)cn2)c1OC [Compound 44-j]		98.44%	91.31%	
[2H]C([2H])([2H])NC(=O)c1nnc(NC(=O)C2CC2)cc1Nc1cccc(-c2ncc(-c3cccnc3C(F)(F)F)cn2)c1OC [Compound 6-j]	2.4 nM	100.18%		Cmax ([3]; IG 30 mg/kg): 12534 ng/mL; t1/2 ([3]; IG 30 mg/kg): 6.26 h; AUC(0-inf) ([3]; mouse, po, IG 30 mg/kg): 63600 ng·h/mL; Tmax ([3]; mouse, po, IG 30 mg/kg): 0.5 h; AUC(0-t) ([3]; mouse, po, IG 30 mg/kg): 61200 ng·h/mL; MRT last ([3]; mouse, po, IG 30 mg/kg): 4.74 h; Spleen coefficient Inhibition rate (%) ([4]; 5 mg/kg i.g. bid for 6 days): 81.78%**; Spleen weight Inhibition rate (%) ([4]; 5 mg/kg i.g. bid for 6 days): 83.38%; Weight of intestinal tissue per unit length Inhibition rate (%) ([4]; 5 mg/kg i.g. bid for 6 days): 76.21%***
[2H]C([2H])([2H])NC(=O)c1nnc(NC(=O)C2CC2)cc1Nc1cccc(-c2ncc(-n3ccnc3C)cn2)c1OC [Compound 55-j]	5.2 nM			
[2H]C([2H])([2H])NC(=O)c1nnc(NC(=O)C2CC2)cc1Nc1cccc(-c2ncc(N3CC[C@@H](O)C3)cn2)c1OC [Compound 59-j]	5 nM		100.66%	
[2H]C([2H])([2H])NC(=O)c1nnc(NC(=O)C2CC2)cc1Nc1cccc(-c2ncc(-c3ccc(F)nc3)cn2)c1OC [Compound 3-j]		103.99%	99.92%	Monkey Residuals at 60 min (%) [6]: 95.82%
[2H]C([2H])([2H])NC(=O)c1nnc(NC(=O)C2CC2)cc1Nc1cccc(-c2ncc(N3CC[C@H](O)C3)cn2)c1OC [Compound 53-j]	5.1 nM		94.17%	
